# Molecular target: T1, Human M4 (Homo sapiens, UniProt P08173)
# T1 construct: Human or rat M4 cDNA, along with the chimeric G protein Gqi5, were transfected into Chinese hamster ovary (CHO-K1) cells; expressed in transfected cells; host or cells: CHO-K1 (Chinese hamster ovary, ATCC), stably co-expressing Gqi5
# T1 sequence (P08173 1-479): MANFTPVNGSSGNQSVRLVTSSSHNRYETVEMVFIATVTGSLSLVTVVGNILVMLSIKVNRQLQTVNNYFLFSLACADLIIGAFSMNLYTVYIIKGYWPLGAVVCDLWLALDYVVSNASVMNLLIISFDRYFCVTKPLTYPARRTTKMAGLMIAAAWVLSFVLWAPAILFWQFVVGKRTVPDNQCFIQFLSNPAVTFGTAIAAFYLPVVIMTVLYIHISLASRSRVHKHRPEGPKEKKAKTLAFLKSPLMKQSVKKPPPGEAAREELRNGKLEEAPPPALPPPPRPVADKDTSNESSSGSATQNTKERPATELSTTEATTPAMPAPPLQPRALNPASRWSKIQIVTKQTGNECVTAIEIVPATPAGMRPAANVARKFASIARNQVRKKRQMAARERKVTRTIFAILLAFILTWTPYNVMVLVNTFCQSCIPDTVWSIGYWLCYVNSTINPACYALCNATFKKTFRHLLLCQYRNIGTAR
# Test: mAChR M4 cell-based functional assay (calcium flux, decrease of EC80 acetylcholine response)
# Conditions: for remaining activity at 30 µM: % ACh maximum at 30 μM, read-out: Human M4 Emin; for IC50: M4/Gqi5/CHO-K1 cells, decrease of response to EC80 acetylcholine
# Summary of the method: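 IC50 reflects inhibition of an EC80 acetylcholine calcium response, fitted by four-parameter logistic equation. Fluo-4-loaded M4/Gqi5 CHO-K1 cells received compound (10-point, 1:3 series) 2 s into the FDSS read, then EC20 acetylcholine at 143 s and EC80 at 268 s.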
remaining activity at 30 µM [%],IC50 [nM],Compound
6,15.6,"Cc1ccc(F)cc1-c1cc(C#N)c(N[C@H]2C[C@@H]3CN(CC4CCOCC4)C[C@@H]3C2)nn1 [Example 146, 6-(5-fluoro-2-methylphenyl)-3-(((3aR,5s,6aS)-2-((tetrahydro-2H-pyran-4-yl)methyl)octahydro-cyclopenta[c]pyrrol-5-yl)amino)pyridazine-4-carbonitrile]"
3,133,"Cc1ccncc1-c1cc(C(F)(F)F)c(N[C@H]2C[C@@H]3CN(CC4CCOCC4)C[C@@H]3C2)nn1 [Example 67, (3aR,5s,6aS)-N-(6-(4-methylpyridin-3-yl)-4-(trifluoromethyl)pyridazin-3-yl)-2-((tetrahydro-2H-pyran-4-yl)methyl)octahydro-cyclopenta[c]pyrrol-5-amine]"
11,9.7,"Cn1cc2cc(-c3cc(C#N)c(N[C@H]4C[C@@H]5CN(CC6CCOCC6)C[C@@H]5C4)nn3)ccc2n1 [Example 153, 6-(2-methyl-2H-indazol-5-yl)-3-(((3aR,5s,6aS)-2-((tetrahydro-2H-pyran-4-yl)methyl)octahydro-cyclopenta[c]pyrrol-5-yl)amino)pyridazine-4-carbonitrile]"
3,7,"Cc1ccc(F)cc1-c1cc(C(F)(F)F)c(N[C@H]2C[C@@H]3CN(C[C@@H]4CC5CCC4O5)C[C@@H]3C2)nn1 (stereo partly drawn) [Example 24, (3aR,5s,6aS)-2-(((2S)-7-oxabicyclo[2.2.1]heptan-2-yl)methyl)-N-(6-(5-fluoro-2-methylphenyl)-4-(trifluoromethyl)pyridazin-3-yl)octahydro-cyclopenta[c]pyrrol-5-amine]"
4,350,"FC(F)(F)c1cc(-c2ccccc2)nnc1N[C@H]1C[C@@H]2CN(Cc3ccccn3)C[C@@H]2C1 [Example 102, (3aR,5s,6aS)-N-(6-phenyl-4-(trifluoro-methyl)pyridazin-3-yl)-2-(pyridin-2-ylmethyl)octahydro-cyclopenta[c]pyrrol-5-amine]"
12,10.1,"Cn1cc2cc(-c3cc(C#N)c(N[C@H]4C[C@@H]5CN(C[C@H]6COCCO6)C[C@@H]5C4)nn3)ccc2n1 [Example 156, 3-(((3aR,5s,6aS)-2-(((S)-1,4-dioxan-2-yl)methyl)octahydro-cyclopenta[c]pyrrol-5-yl)amino)-6-(2-methyl-2H-indazol-5-yl)pyridazine-4-carbonitrile]"
3,95.6,"O=C1Cc2cc(-c3cc(C(F)(F)F)c(N[C@H]4C[C@@H]5CN(CC6CCOCC6)C[C@@H]5C4)nn3)ccc2N1 [Example 63, 5-(6-(((3aR,5s,6aS)-2-((tetrahydro-2H-pyran-4-yl)methyl)octahydro-cyclopenta[c]pyrrol-5-yl)amino)-5-(trifluoro-methyl)pyridazin-3-yl)indolin-2-one]"
3,35.3,"Fc1ccc(C(F)(F)F)c(-c2cc(C(F)(F)F)c(N[C@H]3C[C@@H]4CN(CC5CCOCC5)C[C@@H]4C3)nn2)c1 [Example 45, (3aR,5s,6aS)-N-(6-(5-fluoro-2-(trifluoromethyl)phenyl)-4-(trifluoromethyl)pyridazin-3-yl)-2-((tetrahydro-2H-pyran-4-yl)methyl)octahydro-cyclopenta[c]pyrrol-5-amine]"
4,274,"Cn1cc2cc(-c3cc(C(F)(F)F)c(N[C@H]4C[C@@H]5CN(Cc6ccccn6)C[C@@H]5C4)nn3)ccc2n1 [Example 106, (3aR,5s,6aS)-N-(6-(2-methyl-2H-indazol-5-yl)-4-(trifluoromethyl)pyridazin-3-yl)-2-(pyridin-2-ylmethyl)octahydro-cyclopenta[c]pyrrol-5-amine]"
3,235,"[2H]C([2H])([C@H]1CCCCO1)N1C[C@H]2C[C@H](Nc3nnc(-c4cc(C)ccc4C)cc3C(F)(F)F)C[C@H]2C1 [Example 114, (3aR,5s,6aS)-N-(6-(2,5-dimethylphenyl)-4-(trifluoro-methyl)pyridazin-3-yl)-2-(((R)-tetrahydro-2H-pyran-2-yl)methyl-d2)octahydro-cyclopenta[c]pyrrol-5-amine]"
3,33.2,"[2H]C([2H])(C1CCOCC1)N1C[C@H]2C[C@H](Nc3nnc(-c4ccc(OC)cc4C)cc3C(F)(F)F)C[C@H]2C1 [Example 122, (3aR,5s,6aS)-N-(6-(4-methoxy-2-methylphenyl)-4-(trifluoromethyl)pyridazin-3-yl)-2-((tetrahydro-2H-pyran-4-yl)methyl-d2)octahydro-cyclopenta[c]pyrrol-5-amine]"
6,32.9,"Cn1cc2cc(-c3cc(C(F)(F)F)c(N[C@H]4C[C@@H]5CN(C[C@H]6COCCO6)C[C@@H]5C4)nn3)ccc2n1 [Example 34, (3aR,5s,6aS)-2-(((S)-1,4-dioxan-2-yl)methyl)-N-(6-(2-methyl-2H-indazol-5-yl)-4-(trifluoromethyl)pyridazin-3-yl)octahydro-cyclopenta[c]pyrrol-5-amine]"
4,269,"Fc1ccc(Cl)c(-c2cc(C(F)(F)F)c(N[C@H]3C[C@@H]4CN(Cc5ccccn5)C[C@@H]4C3)nn2)c1 [Example 100, (3aR,5s,6aS)-N-(6-(2-chloro-5-fluorophenyl)-4-(trifluoromethyl)pyridazin-3-yl)-2-(pyridin-2-ylmethyl)octahydro-cyclopenta[c]pyrrol-5-amine]"
3,136,"[2H]C([2H])(C1CCOCC1)N1C[C@H]2C[C@H](Nc3nnc(-c4ccc5c(c4)ncn5C)cc3C(F)(F)F)C[C@H]2C1 [Example 111, (3aR,5s,6aS)-N-(6-(1-methyl-1H-benzo[d]imidazol-5-yl)-4-(trifluoro-methyl)pyridazin-3-yl)-2-((tetrahydro-2H-pyran-4-yl)methyl-d2)octahydro-cyclopenta[c]pyrrol-5-amine]"
3,172,"COc1cc(F)c(-c2cc(C(F)(F)F)c(N[C@H]3C[C@@H]4CN(CC5CCOCC5)C[C@@H]4C3)nn2)cc1F [Example 78, (3aR,5s,6aS)-N-(6-(2,5-difluoro-4-methoxyphenyl)-4-(trifluoromethyl)pyridazin-3-yl)-2-((tetrahydro-2H-pyran-4-yl)methyl)octahydro-cyclopenta[c]pyrrol-5-amine]"
3,408,"Fc1cc(OC(F)F)ccc1-c1cc(C(F)(F)F)c(N[C@H]2C[C@@H]3CN(CC4CCOCC4)C[C@@H]3C2)nn1 [Example 83, (3aR,5s,6aS)-N-(6-(2-fluoro-4-(difluoromethoxy)phenyl)-4-(trifluoromethyl)pyridazin-3-yl)-2-((tetrahydro-2H-pyran-4-yl)methyl)octahydro-cyclopenta[c]pyrrol-5-amine]"
5,54.9,"Cn1cc2cc(-c3cc(C#N)c(N[C@H]4C[C@@H]5CN(C[C@@H]6COCCO6)C[C@@H]5C4)nn3)ccc2n1 [Example 157, 3-(((3aR,5s,6aS)-2-(((R)-1,4-dioxan-2-yl)methyl)octahydro-cyclopenta[c]pyrrol-5-yl)amino)-6-(2-methyl-2H-indazol-5-yl)pyridazine-4-carbonitrile]"

# From patent US20230183219A1, “CONDENSED SUBSTITUTED HYDROPYRROLES AS ANTAGONISTS OF THE MUSCARINIC ACETYLCHOLINE RECEPTOR M4” (Vanderbilt University, priority 2020, published 2023)
